Where two headings read alike, the source gives them in different places.

Series [1] is described as follows: In vivo biodistribution in B16/F1 xenograft-bearing nude mice. Also noted: species or system mouse. Particulars: NMRI-Foxn1nu/Foxn1nu, mouse, iv, 5 MBq, total radioactivity; for tissue uptake at 1 h: 1 h after i.v. injection; for tissue to tissue ratio at 1 h: Fig 3. On the procedure: (§1) B16/F1 cells (3x10^6) in a volume of 150 μL 0.9% NaCl were inoculated subcutaneously on the right shoulder of NMRI-Foxn1^nu /Foxn1^nu mice (Janvier Labs, Saint-Berthevin, France). After 1–2 weeks of growth, tumor bearing mice were injected with approximately 5 MBq of ^68Ga-DOTA-NAPamide in a volume of 100 μL 0.9% NaCl into a lateral tail vein via a catheter. Mice were sacrificed and dissected 1 h after injection. The B16F1 tumor, blood, stomach, pancreas, small intestine, colon, liver, spleen, kidney, heart, lung, muscle and femur samples were weighed and uptake of radioactivity was measured by a gamma counter (Wallac 1470 Wizard, Perkin Elmer, Waltham, MA, USA). To determine the effect of unlabeled ligand on tumor uptake, either 50 pmol or 500 pmol non-labeled DOTA-NAPamide were co-injected.

The subject of series [2] is MC1R-expressing B16/F1 tumor xenografts. The series is described as above. More on the design: species or system mouse. On the procedure:
as §1

Series [3] can be described thus: In vivo PET/MRI imaging of mice bearing B16/F1 tumors (SUV by VOI). Also noted: species or system mouse. The settings on record: NMRI-Foxn1nu/Foxn1nu, mouse, B16/F1 tumor, iv, total radioactivity; for SUV: dynamic PET; for SUV at 1 h: 1 h post injection, n = 1. On the procedure: (§2) B16/F1 cells (3x10^6) in a volume of 150 μL 0.9% NaCl were inoculated subcutaneously on the right shoulder of NMRI-Foxn1^nu /Foxn1^nu mice (Janvier Labs, Saint-Berthevin, France). After 1–2 weeks of growth, tumor bearing mice were injected with approximately 15 MBq of ^68Ga-DOTA-NAPamide in a volume of approximately 150 μL 0.9% NaCl into a lateral tail vein via a catheter. Positron emission tomography (PET) / magnetic resonance imaging (MRI) (1 Tesla nanoScan PET/MRI Mediso, Budapest, Hungary) was performed at Berlin Experimental Radionuclide Imaging Center (BERIC), Charité –Universitätsmedizin Berlin. Anatomic MRI scans were acquired using a T2-weighted 2D fast spin echo sequence (T2 FSE 2D) with the following parameters: coronal sequentially, matrix 256x256x20 with dimensions 0.36x0.36x1.5mm^3, TR: 8695 ms, TE: 103 ms, and a flip angle of 180°. PET scans were performed for 90 min starting directly before intravenous injection of tracer. PET images were reconstructed from the raw data with the following image sequence: 6 x 10 s, 6 x 30 s, 5 x 60 s and 8 X 600 s. The tracer standardized uptake value (SUV) in the tumor tissue was determined by manual contouring of a volume of interest (VOI) of the PET images using PMOD 3.610 (PMOD Technologies, Zürich, Switzerland).

For a further series, the system named is B16/F1 tumors. The series is described as above. More on the design: species or system mouse. Particulars: dynamic PET, all tested conditions, after injection. On the procedure: as §2
The target in series [4] is T1, murine MC1R expressed in the B16/F1 cells (Mus musculus, UniProt Q01727).
T1 construct: endogenous in cells; host or cells: B16/F1 mouse melanoma cells (live, whole cells)
T1 sequence (Q01727 whole entry): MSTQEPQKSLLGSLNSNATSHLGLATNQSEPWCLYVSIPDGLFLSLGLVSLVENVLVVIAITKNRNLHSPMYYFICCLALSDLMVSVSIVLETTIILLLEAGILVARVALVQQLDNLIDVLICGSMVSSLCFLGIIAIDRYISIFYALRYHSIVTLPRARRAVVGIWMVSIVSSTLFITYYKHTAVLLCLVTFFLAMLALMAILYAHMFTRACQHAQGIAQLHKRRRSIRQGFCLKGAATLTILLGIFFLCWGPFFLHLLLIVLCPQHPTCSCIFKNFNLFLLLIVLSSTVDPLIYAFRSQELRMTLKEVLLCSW
The series can be described thus: Competitive binding (ligand displacement) with 125I-NDP-MSH on whole B16/F1 cells. Particulars: displacement of 125I-NDP-MSH, n = 3. Here is the method:
[Nle^4,d-Phe^7]-melanocyte-stimulating hormone (NDP-MSH) was iodinated with Na^125I by the chloramine-T method and it was purified from unlabeled peptide by HPLC as described before. Saturation and competitive binding studies were performed with live cells. 40.000 B16/F1 cells were seeded per well into a 96-well flat bottom cell culture plate. For competitive binding, medium was removed and 50 μL of binding buffer (50 mM 4-(2-hydroxyethyl)-1-piperazineethanesulfonic acid (HEPES) pH 7.4, 5 mM MgCl2, 1 mM CaCl2, 0.5% BSA, protease inhibitor cocktail cOmplete [Roche Applied Science, Penzberg, Germany]) with increasing concentrations of non-radioactive peptide was added to the cells. Additionally, 50 μL binding buffer with 100,000 counts per minute (cpm) of ^125I-NDP-MSH was added. After 30 minutes of incubation at 37°C, cells were washed 4 times with cold washing buffer (50 mM Tris-HCl pH 7.4, 125 mM NaCl, 0.05% BSA). 100 μL 1 N NaOH was added to lyse cells. Lysates were transferred into vials and measured using a gamma counter (Wallac 1470 Wizard, PerkinElmer, Waltham, MA, USA). The saturation assay was performed by adding 100 μL of binding buffer with increasing amounts of ^125I-NDP-MSH to the cells in the presence or absence of 1 μM of unlabeled NDP-MSH.

The next series deals with tumor. Particulars: 4 h p.i., 111In and 67Ga labels; cited from earlier work.
[5] abbreviates: B16/F1 cells, Fig 1B (impact of gallium chelation).

With `CCCC[C@H](NC(C)=O)C(=O)N[C@@H](CC(=O)O)C(=O)N[C@@H](Cc1c[nH]cn1)C(=O)N[C@H](Cc1ccccc1)C(=O)N[C@@H](CCCNC(=N)N)C(=O)N[C@@H](Cc1c[nH]c2ccccc12)C(=O)NCC(=O)N[C@@H](CCCCNC(=O)CN1CCN(CC(=O)O)CCN(CC(=O)O)CCN(CC(=O)O)CC1)C(N)=O` [68Ga-DOTA-NAPamide, metal not drawn], the tissue uptake at 1 h was 7 %ID/g in series [1] (B16/F1 tumor, HPLC-purified tracer, ~5 MBq, ± 95% CI, n = 7, read-out: tumor uptake); 0.78 %ID/g in series [1] (B16/F1 tumor, non-purified tracer (standard procedure), ~5 MBq, ± 95% CI, n = 7, read-out: tumor uptake); below 0.5 %ID/g in series [1] (all other tissues (except tumor and kidneys), mostly below, read-out: uptake in all other tissues (except tumor and kidneys)). For the same compound, the tissue to tissue ratio at 1 h is above 15 in series [1] (tumor / all other organs investigated, HPLC-purified tracer, read-out: tumor-to-tissue ratios for all other organs investigated) and 2.33 in series [1] (tumor / kidney, HPLC-purified tracer, read-out: tumor-to-kidney ratio). In series [2] (500 pmol coinjected unlabeled peptide, 1 h), the “decrease in tumor uptake vs purified tracer alone” value is “approximately 6 fold”. Besides, the “increase in tumor uptake, purified vs non-purified” value in series [2] (1 h post injection) is on record as “more than 8 fold”. Further, the tumor uptake in series [2] (HPLC-purified tracer, 1 h after i.v. injection, ~5 MBq, ± 95% CI, n = 7) was 7.0% ± 1.7%; in series [2] (non-purified tracer (standard procedure), 1 h after i.v. injection, ~5 MBq, ± 95% CI, n = 7), 0.78% ± 0.55%; in series [2] (purified tracer + coinjection of 50 pmol (1,000-fold) cold DOTA-NAPamide, 1 h, Fig 4, n = 3, ± 95% CI) it was 3.8% ± 3.6%; in series [2] (purified tracer + coinjection of 500 pmol (10,000-fold) cold DOTA-NAPamide, 1 h, Fig 4, n = 3, ± 95% CI), 1.1% ± 0.5%; in series [2] (purified tracer alone, 5 MBq (~50 fmol), 1 h, Fig 4, n = 3, ± 95% CI), 6.7% ± 1.9%. The kidney uptake in series [2] (purified tracer, 1 h after i.v. injection, ± 95% CI) is reported as 3.0% ± 0.6%; in series [2] (standard procedure (non-purified), 1 h after i.v. injection, ± 95% CI), 4.6% ± 2.7%. Further, the SUV in series [3] (15 MBq, the other tumors (other three formulations), read-out: initial amount of radioactivity in the tumor (mean SUV)) stood at 0.43 SUV; in series [3] (animal with 1,000-fold excess of cold peptide mass, read-out: initial amount of radioactivity in the tumor (SUV)), 0.63 SUV. Besides, the SUV at 1 h in series [3] (15 MBq, purified tracer) turned out to be 0.42 SUV; in series [3] (15 MBq, unpurified tracer (standard procedure)), 0.119 SUV; in series [3] (purified + 1,000-fold excess of cold peptide), 0.367 SUV; in series [3] (purified + 10,000-fold excess of unlabeled peptide) it was 0.152 SUV. The “time to maximum tracer level in the tumors” value in the series on B16/F1 tumors was 5 to 10 min.

A word on the Ki: it is the dissociation constant of the complex between target and ligand, obtained from inhibition or displacement. Read a high Ki as weaker binding. For `CCCC[C@H](NC(C)=O)C(=O)N[C@@H](CC(=O)O)C(=O)N[C@@H](Cc1c[nH]cn1)C(=O)N[C@H](Cc1ccccc1)C(=O)N[C@@H](CCCNC(=N)N)C(=O)N[C@@H](Cc1c[nH]c2ccccc12)C(=O)NCC(=O)N[C@@H](CCCCNC(=O)CN1CCN(CC(=O)O)CCN(CC(=O)O)CCN(CC(=O)O)CC1)C(N)=O` [DOTA-NAPamide, Acetyl-Nle-Asp-His-D-Phe-Arg-Trp-Gly-Lys(DOTA)-NH2], the Ki in series [4] (setting [5]) came out at 0.4 nM; in series [4] (whole B16/F1 cells, Fig 1A), 0.37 nM. The tumor uptake in the series with tumor is given as 7.56% to 9.43%.

In series [4] (setting [5]), “Ga-labeled DOTA-NAPamide: DOTA-NAPamide complexed with non-radioactive Ga (XDHFRWGK; Linear alpha-MSH analogue Ac-Nle-Asp-His-D-Phe-Arg-Trp-Gly-Lys(DOTA)-NH2: N-terminal acetyl; X1 = norleucine; D-Phe4; Lys8 side chain conjugated to DOTA chelating non-radioactive Ga; C-terminal amide)” returned an inhibition constant Ki of 0.43 nM.

The values above are taken from paper PMC6548402, “Increasing molar activity by HPLC purification improves ^68Ga-DOTA-NAPamide tumor accumulation in a B16/F1 melanoma xenograft model” (PLoS ONE, 2019).
